How the values were obtained:
skin [1] = test: skin irritation on wear of patch with nicotinate enhancer; assay type: in vivo; conditions: benzylnicotinate substituted for methylnicotinate in the patch enhancer system
Source text: (§1) Permeation enhancers identified as useful for this product included nicotinates (methyl and benzyl), fatty acids (oleic acid, undecanioic acid, lauric acid), fatty alcohols (octanol and nonanol), terpenes (menthol, limonene, and menthone), and polyols (polyethylene glycol, propylene glycol, and glycerol). In an early trial, a binary enhancer system of methylnicotinate and propylene glycol was used but the inventor observed that the methylnicotinate crystallized after about 3-4 months in the patch.

skin [2] = test: permeation enhancement of vitamin B12 from the patch; conditions: in conjunction with propylene glycol
Source text: as §1

[3] = early trial of patch with binary enhancer system: crystallization of enhancer in the patch on storage; assay type: physicochemical; conditions: binary enhancer system of methylnicotinate and propylene glycol in vitamin B12 patch
Source text: as §1

O=C(OCc1ccccc1)c1cccnc1 [benzylnicotinate]
skin irritation (skin [1]): severe and unacceptable skin irritation

CC(C)[C@@H]1CC[C@@H](C)CC1=O [menthone]
permeation enhancer performance (skin [2]): excellent permeation enhancer

COC(=O)c1cccnc1 [methylnicotinate]
time after which the enhancer crystallized in the patch [3]: 3-4 months

Reference: patent US9700522B2, “Transdermal patch and method for delivery of vitamin B12” (Vita Sciences LLC, priority 2007, dated 2017)
